The values that follow come from ChEMBL document CHEMBL3352389, “Evaluation of class I HDAC isoform selectivity of largazole analogues” (Bioorg Med Chem Lett, 2014).

Structures are written as SMILES.

Chain of Histone deacetylase 2 (Q92769 whole entry): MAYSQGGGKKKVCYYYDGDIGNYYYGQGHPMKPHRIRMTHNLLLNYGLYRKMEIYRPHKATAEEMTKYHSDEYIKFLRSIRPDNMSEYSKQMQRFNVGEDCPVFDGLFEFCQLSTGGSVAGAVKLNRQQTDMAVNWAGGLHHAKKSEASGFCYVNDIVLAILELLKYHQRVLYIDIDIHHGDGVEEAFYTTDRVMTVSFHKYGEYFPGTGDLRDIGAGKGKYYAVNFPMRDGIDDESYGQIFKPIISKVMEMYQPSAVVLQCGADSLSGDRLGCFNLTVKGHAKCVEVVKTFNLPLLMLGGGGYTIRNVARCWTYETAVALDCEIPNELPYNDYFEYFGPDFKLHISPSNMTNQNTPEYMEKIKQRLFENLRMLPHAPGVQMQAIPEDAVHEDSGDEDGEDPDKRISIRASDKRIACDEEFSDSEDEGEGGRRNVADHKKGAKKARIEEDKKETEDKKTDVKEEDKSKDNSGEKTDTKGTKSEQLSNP

One assay addresses T1, Histone deacetylase 8 (Homo sapiens, UniProt Q9BY41).
T1 sequence (Q9BY41 whole entry): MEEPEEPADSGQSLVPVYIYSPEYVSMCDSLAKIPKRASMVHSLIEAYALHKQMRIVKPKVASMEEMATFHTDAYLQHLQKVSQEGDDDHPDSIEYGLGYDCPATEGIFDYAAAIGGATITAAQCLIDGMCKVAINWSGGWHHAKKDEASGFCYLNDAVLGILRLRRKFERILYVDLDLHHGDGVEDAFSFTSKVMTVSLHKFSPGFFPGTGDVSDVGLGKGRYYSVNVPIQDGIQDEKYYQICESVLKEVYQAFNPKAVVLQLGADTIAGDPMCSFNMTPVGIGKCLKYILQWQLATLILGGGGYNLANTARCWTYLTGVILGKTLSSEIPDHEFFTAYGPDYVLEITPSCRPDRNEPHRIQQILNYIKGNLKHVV
The experiment in a line: Inhibition of HDAC8 (unknown origin) incubated at 37 degC for 30 mins.
Conditions: not given; call rule not given here
Broadly, the IC50 is the concentration needed to halve the response being measured. With `C[C@@]12CSC(=N1)c1csc(n1)CNC(=O)C[C@@H](/C=C/CCS)OC(=O)[C@H](CCCN)NC2=O`, the IC50 entry is “Not Active”.

On to `C[C@@]12CSC(=N1)c1csc(n1)CNC(=O)C[C@@H](/C=C/CCS)OC(=O)[C@H](Cc1c[nH]cn1)NC2=O`, for which the IC50 entry is on record as “Not Active”.

For `C[C@@]12CSC(=N1)c1csc(n1)CNC(=O)C[C@@H](/C=C/CCS)OC(=O)[C@H](Cc1ccc(O)cc1)NC2=O`, the IC50 entry was “Not Active”.

For `C[C@@]12CSC(=N1)c1csc(n1)CNC(=O)C[C@@H](/C=C/CCS)OC(=O)[C@H](CC(=O)O)NC2=O`, the 50% inhibitory concentration (IC50) result was “Not Active”.

Consider `C[C@@]12CSC(=N1)c1csc(n1)CNC(=O)C[C@@H](/C=C/CCS)OC(=O)[C@H](CCN)NC2=O`, for which the IC50 entry is recorded as “Not Active”.

For `CC(C)(C)OC(=O)NCC[C@@H]1NC(=O)[C@]2(C)CSC(=N2)c2csc(n2)CNC(=O)C[C@@H](/C=C/CCS)OC1=O`, the IC50 entry is “Not Active”.

Consider `C[C@@]12CSC(=N1)c1csc(n1)CNC(=O)C[C@@H](/C=C/CCS)OC(=O)[C@H](Cc1ccccc1)NC2=O`, for which the IC50 entry is “Not Active”.

The assay is the same for the next values; noted with them: read-out: IC50.
As to `CC(C)(C)OC(=O)n1cnc(C[C@@H]2NC(=O)[C@]3(C)CSC(=N3)c3csc(n3)CNC(=O)C[C@@H](/C=C/CCS)OC2=O)c1`, the IC50 stood at 540 nM.

In the case of `CC(C)(C)OC(=O)NCCC[C@@H]1NC(=O)[C@]2(C)CSC(=N2)c2csc(n2)CNC(=O)C[C@@H](/C=C/CCS)OC1=O`, the IC50 was 790 nM.

The target of a further assay is Histone deacetylase 3 (Homo sapiens, UniProt O15379). The experiment in a line: Inhibition of HDAC3 (unknown origin) incubated at 37 degC for 30 mins.
Chain of Histone deacetylase 3 (O15379 whole entry): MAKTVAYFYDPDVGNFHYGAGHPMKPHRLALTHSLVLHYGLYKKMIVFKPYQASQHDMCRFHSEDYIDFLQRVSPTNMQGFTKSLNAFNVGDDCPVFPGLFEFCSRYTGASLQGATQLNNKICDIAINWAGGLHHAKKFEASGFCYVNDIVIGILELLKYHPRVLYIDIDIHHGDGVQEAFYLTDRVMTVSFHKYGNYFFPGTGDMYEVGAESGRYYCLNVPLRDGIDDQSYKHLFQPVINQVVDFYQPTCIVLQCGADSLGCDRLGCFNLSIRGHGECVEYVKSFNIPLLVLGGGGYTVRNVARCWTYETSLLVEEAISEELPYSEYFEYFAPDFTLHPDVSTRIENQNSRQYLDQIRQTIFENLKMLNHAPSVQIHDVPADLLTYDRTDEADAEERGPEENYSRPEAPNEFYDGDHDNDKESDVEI
Conditions: not given
Take `C[C@@]12CSC(=N1)c1csc(n1)CNC(=O)C[C@@H](/C=C/CCS)OC(=O)[C@H](CCCN)NC2=O`: the concentration for half-maximal inhibition (IC50) stood at 6 nM.

The compound `C[C@@]12CSC(=N1)c1csc(n1)CNC(=O)C[C@@H](/C=C/CCS)OC(=O)[C@H](Cc1c[nH]cn1)NC2=O` gave an IC50 of 1.1 nM.

The compound `C[C@@]12CSC(=N1)c1csc(n1)CNC(=O)C[C@@H](/C=C/CCS)OC(=O)[C@H](Cc1ccc(O)cc1)NC2=O` gave an IC50 of 0.38 nM.

Compound `C[C@@]12CSC(=N1)c1csc(n1)CNC(=O)C[C@@H](/C=C/CCS)OC(=O)[C@H](CC(=O)O)NC2=O` displayed an IC50 of 100 nM.

In the case of `C[C@@]12CSC(=N1)c1csc(n1)CNC(=O)C[C@@H](/C=C/CCS)OC(=O)[C@H](CCN)NC2=O`, inhibition was half-maximal at 7.8 nM (IC50).

In turn, `CC(C)(C)OC(=O)NCCC[C@@H]1NC(=O)[C@]2(C)CSC(=N2)c2csc(n2)CNC(=O)C[C@@H](/C=C/CCS)OC1=O` gave an IC50 of 1.8 nM.

Take `CC(C)(C)OC(=O)NCC[C@@H]1NC(=O)[C@]2(C)CSC(=N2)c2csc(n2)CNC(=O)C[C@@H](/C=C/CCS)OC1=O`: the half-maximal inhibitory concentration (IC50) was 4.2 nM.

`C[C@@]12CSC(=N1)c1csc(n1)CNC(=O)C[C@@H](/C=C/CCS)OC(=O)[C@H](Cc1ccccc1)NC2=O`: the IC50 was found to be 0.68 nM.

The target of another assay is Histone deacetylase 1 (Homo sapiens, UniProt Q13547). The experiment in a line: Inhibition of HDAC1 (unknown origin) incubated at 37 degC for 30 mins.
Chain of Histone deacetylase 1 (Q13547 whole entry): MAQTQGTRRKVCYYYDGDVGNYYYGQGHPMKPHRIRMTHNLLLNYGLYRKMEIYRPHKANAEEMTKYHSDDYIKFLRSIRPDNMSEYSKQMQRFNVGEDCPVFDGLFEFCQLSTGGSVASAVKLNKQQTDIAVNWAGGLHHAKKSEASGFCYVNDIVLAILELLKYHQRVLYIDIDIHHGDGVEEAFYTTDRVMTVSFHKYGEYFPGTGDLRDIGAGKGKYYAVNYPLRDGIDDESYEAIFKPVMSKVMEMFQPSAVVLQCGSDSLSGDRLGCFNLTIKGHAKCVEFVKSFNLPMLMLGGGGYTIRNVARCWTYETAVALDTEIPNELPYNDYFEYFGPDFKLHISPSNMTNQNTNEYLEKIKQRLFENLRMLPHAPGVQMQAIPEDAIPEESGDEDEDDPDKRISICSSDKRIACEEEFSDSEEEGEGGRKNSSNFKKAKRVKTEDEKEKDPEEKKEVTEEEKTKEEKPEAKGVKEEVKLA
Conditions: not given
In turn, `C[C@@]12CSC(=N1)c1csc(n1)CNC(=O)C[C@@H](/C=C/CCS)OC(=O)[C@H](CCCN)NC2=O` gave a half-maximal inhibitory concentration (IC50) of 3.3 nM.

Consider `C[C@@]12CSC(=N1)c1csc(n1)CNC(=O)C[C@@H](/C=C/CCS)OC(=O)[C@H](Cc1c[nH]cn1)NC2=O`, for which it took 0.2 nM to reach half-maximal inhibition (IC50).

For `C[C@@]12CSC(=N1)c1csc(n1)CNC(=O)C[C@@H](/C=C/CCS)OC(=O)[C@H](Cc1ccc(O)cc1)NC2=O`, the IC50 was found to be 0.21 nM.

The compound `C[C@@]12CSC(=N1)c1csc(n1)CNC(=O)C[C@@H](/C=C/CCS)OC(=O)[C@H](CC(=O)O)NC2=O` yielded an IC50 of 39 nM.

Compound `CC(C)(C)OC(=O)n1cnc(C[C@@H]2NC(=O)[C@]3(C)CSC(=N3)c3csc(n3)CNC(=O)C[C@@H](/C=C/CCS)OC2=O)c1` gave an IC50 of 0.62 nM.

On to `C[C@@]12CSC(=N1)c1csc(n1)CNC(=O)C[C@@H](/C=C/CCS)OC(=O)[C@H](CCN)NC2=O`, for which the half-inhibitory concentration (IC50) was found to be 5.5 nM.

With `CC(C)(C)OC(=O)NCCC[C@@H]1NC(=O)[C@]2(C)CSC(=N2)c2csc(n2)CNC(=O)C[C@@H](/C=C/CCS)OC1=O`, the IC50 was determined as 0.96 nM.

On to `CC(C)(C)OC(=O)NCC[C@@H]1NC(=O)[C@]2(C)CSC(=N2)c2csc(n2)CNC(=O)C[C@@H](/C=C/CCS)OC1=O`, for which the IC50 amounted to 2.3 nM.

With `C[C@@]12CSC(=N1)c1csc(n1)CNC(=O)C[C@@H](/C=C/CCS)OC(=O)[C@H](Cc1ccccc1)NC2=O`, the IC50 was 0.29 nM.

The next assay has as its target Histone deacetylase 2 (Homo sapiens, UniProt Q92769). The experiment in a line: Inhibition of HDAC2 (unknown origin) incubated at 37 degC for 30 mins.
Conditions: not given
Consider `C[C@@]12CSC(=N1)c1csc(n1)CNC(=O)C[C@@H](/C=C/CCS)OC(=O)[C@H](CCCN)NC2=O`, for which the IC50 turned out to be 6.3 nM.

Compound `C[C@@]12CSC(=N1)c1csc(n1)CNC(=O)C[C@@H](/C=C/CCS)OC(=O)[C@H](Cc1c[nH]cn1)NC2=O` registered a half-maximal inhibitory concentration (IC50) of 1.4 nM.

Turning to `C[C@@]12CSC(=N1)c1csc(n1)CNC(=O)C[C@@H](/C=C/CCS)OC(=O)[C@H](Cc1ccc(O)cc1)NC2=O`, half-maximal inhibition (IC50) was put at 1.1 nM.

`C[C@@]12CSC(=N1)c1csc(n1)CNC(=O)C[C@@H](/C=C/CCS)OC(=O)[C@H](CC(=O)O)NC2=O` showed an IC50 of 150 nM.

`C[C@@]12CSC(=N1)c1csc(n1)CNC(=O)C[C@@H](/C=C/CCS)OC(=O)[C@H](CCN)NC2=O` came in with a 50% inhibitory concentration (IC50) of 21 nM.

In turn, `CC(C)(C)OC(=O)NCCC[C@@H]1NC(=O)[C@]2(C)CSC(=N2)c2csc(n2)CNC(=O)C[C@@H](/C=C/CCS)OC1=O` returned a 50% inhibitory concentration (IC50) of 1.4 nM.

On to `CC(C)(C)OC(=O)NCC[C@@H]1NC(=O)[C@]2(C)CSC(=N2)c2csc(n2)CNC(=O)C[C@@H](/C=C/CCS)OC1=O`, for which it took 3.1 nM to reach half-maximal inhibition (IC50).

Consider `C[C@@]12CSC(=N1)c1csc(n1)CNC(=O)C[C@@H](/C=C/CCS)OC(=O)[C@H](Cc1ccccc1)NC2=O`, for which the IC50 was 1.7 nM.
